Assay results: US20050065066A1, “Stabilised insulin compositions” (priority 2002, published 2005)
Where two headings read alike, the source gives them in different places.

Experiments:
[1] = biological target: T1, metal site of insulin R6 hexamers (Homo sapiens, UniProt P01308); assay: TZD-assay: fluorescence based displacement assay; assay type: binding
T1 construct: human insulin comprising additional amino acids, i.e. more than 51 amino acids
Method: The binding affinity of ligands to the metal site of insulin R6 hexamers are measured in a fluorescense based displacement assay. The fluorescence of 5-(4-dimethylaminobenzylidene)thiazolidine-2,4-dione (TZD) which is a ligand for the metal site of insulin R6 is quenched upon displacement from the metal site to the solution. Titration of a ligand to a stock solution of insulin R6 hexamers with this compound mounted in the metal site allows the binding affinity of these ligands to be determined measuring the fluorescence at 455 nm upon excitation at 410 nm.
Stock solution: 0.02 mM human insulin, 0.007 mM Zn-acetate, 40 mM phenol, 0.01 mM TZD in 50 mM tris buffer adjusted to pH=8.0 with NaOH/ClO4^−.
The ligand is dissolved in DMSO to a concentration of 5 mM and added in aliquots to the stock solution to final concentrations of 0-250 µM.
Fluorescence measurements were carried out on a Perkin Elmer Spectrofluorometer LS50B. T main absorption band was excited at 410 nm and emission was detected at 455 nm. The resolution was 10 nm and 2.5 nm for excitation and emission, respectively.
This equation is fitted to the datapoints ΔF(455 nm))=ΔFmax* [ligand]free/(KD(app)*(1+[TZD]/KTZD)+[ligand]free)) KD(app) is the apparent dissociation constant and Fmax is the fluorescence at maximal ligand concentration. The value of KTZD is measured separately to 230 nM
Two different fitting-procedures can be used. One in which both parameters, KD(app) and Fmax, are adjusted to best fit the data and a second in which the value of Fmax is fixed (Fmax=1) and only KD(app) is adjusted. The given data are from the second fitting procedure. The Solver module of Microsoft Excel can be used to generate the fits from the data points.

[2] = Chemical stability of insulin formulations by SEC (size exclusion chromatography); assay type: physicochemical; conditions: formulated human insulin, 3 Zn2+ per hexamer
Method: (§1) The chemical stability of insulin formulations of the invention was characterised by HPLC (RPC, reverse phase chromatography and SEC, size exclusion chromatography). As reference, insulin formulated without ligands of the invention but with 0.3% DMSO was also investigated and shown below: [drawing]
(§2) Storage in HPLC 1 ml vials at 45° C. (5 d), 37° C. (2 w), 30° C. (6 w), 25° C. (10 w), 15° C. (30 w) gave about the same increase of transformation products correlating to an increase in reactions constants of a factor 3-4 per 10 degree.
SEC (size exclusion chromatography) on Waters insulin HMWP column, 300×7.8 mm, eluted by 15:20:65 of acetic acid: acetonitrile: arginine 1 g/L at flow of 1 mL/min and ambient temperature.

[3] = Chemical stability of insulin formulations by RPC (reverse phase chromatography); assay type: physicochemical; conditions: formulated human insulin, 3 Zn2+ per hexamer
Method: as §1
FIG. 10. Reverse phase chromatography of formulated human insulin with 3 Zn^2+ per hexamer, 30 mM phenol, 150 mM mannitol, 3 mM phosphoric acid, sodium hydroxide to pH 7.4 and 0.3% DMSO corresponding to 3 ligands per hexamer at start (upper panel) and after storage for 2 weeks at 37° C. (lower panel): Preservatives before 20 min., “hydrophilic derivatives” (desamido-insulins) 20 min to main top insulin, “hydrophobic derivatives 1” main top to 64 min., and “hydrophobic derivatives 2” (insulin dimers) after 64 min.
as §2
RPC (reverse phase chromatography) on Waters SymmetryShield RP8 column, 150×4.6 mm and 3.5 μm, eluted by A: 0.2 M sodium sulfate+0.04 M sodium phosphate pH 7.2+10% acetonitrile and isocratically (i) or a gradient (g) of B: 70% acetonitrile [minutes/% B(i/g): 0/19, 21/24(i)(sudden change), 51/24(i), 81/39(g), 81.1/0(i), 82.3/19(i)] at flow of 0.9 mL/min and 30° C.

[4] = affinity towards the zinc site, TZD-assay, read-out: Kd(app)

T1 sequence (P01308 25-54 limits assumed): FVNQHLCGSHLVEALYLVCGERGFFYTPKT
T1 sequence (P01308 90-110 limits assumed): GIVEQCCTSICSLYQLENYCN

## CN(C)c1ccc(/C=C/C=C2\SC(=O)NC2=O)cc1 [Example 239, 5-[3-(4-Dimethylaminophenyl)allylidene]thiazolidine-2,4-dione]
other
  melting point: 259 to 263 °C

## Cc1cccc(C)c1/C=C1\SC(=O)NC1=O [Example 235, 5-(2,6-Dimethylbenzylidene)thiazolidine-2,4-dione]
other
  melting point: 104 to 105 °C

## Fc1ccc(Cn2c3ccccc3c3cc(-c4nn[nH]n4)ccc32)c(F)c1 [Example 759, 9-(2,4-Difluorobenzyl)-3-(2H-tetrazol-5-yl)-9H-carbazole]
[1]; [4]
  Kd: 23 nM

## CC(/C=C1\SC(=O)NC1=O)=C\c1ccccc1 [Example 240, 5-(2-Methyl-3-phenylallylidene)thiazolidine-2,4-dione]
other
  melting point: 203 to 210 °C

## COc1cc(OCc2c(F)cccc2[N+](=O)[O-])cc(OC)c1C=C1SC(=O)NC1=O [Example 237, 5-[4-(2-Fluoro-6-nitrobenzyloxy)-2,6-dimethoxybenzylidene]thiazolidine-2,4-dione]
other
  melting point: 255 to 256 °C

## O=C1NC(=O)/C(=C/c2ccc3cc(O)ccc3c2)S1 [Example 171, 5-(6-Hydroxy-2-naphthylmethylene)thiazolidine-2,4-dione]
other
  melting point: 310 to 314 °C

## O=C(O)COc1cccc(/C=C2\SC(=O)NC2=O)c1 [Example 461, [3-(2,4-Dioxothiazolidin-5-ylidenemethyl)phenoxy]acetic acid]
[2]; 5° predicted
  dimer: (0.057) % formed/year
[2]; 15° C.
  dimer: 0.33 % formed/year
[2]; 25° C.
  dimer: 1.20 % formed/year
[2]; 30° C.
  dimer: 2.34 % formed/year
[2]; 37° C.
  dimer: 6.50 % formed/year
[2]; 45° C.
  dimer: 23.4 % formed/year
[3]; 5° predicted
  hphil (hydrophilic derivatives, desamido-insulins): (0.287) % formed/year
  hphob1 (hydrophobic derivatives 1): (0.153) % formed/year
  hphob2 (hydrophobic derivatives 2, insulin dimers): (0.044) % formed/year
[3]; 15° C.
  hphil (hydrophilic derivatives, desamido-insulins): 1.14 % formed/year
  hphob1 (hydrophobic derivatives 1): 0.67 % formed/year
  hphob2 (hydrophobic derivatives 2, insulin dimers): 0.29 % formed/year
[3]; 25° C.
  hphil (hydrophilic derivatives, desamido-insulins): 2.86 % formed/year
  hphob1 (hydrophobic derivatives 1): 4.78 % formed/year
  hphob2 (hydrophobic derivatives 2, insulin dimers): 0.99 % formed/year
[3]; 30° C.
  hphil (hydrophilic derivatives, desamido-insulins): 5.12 % formed/year
  hphob1 (hydrophobic derivatives 1): 7.11 % formed/year
  hphob2 (hydrophobic derivatives 2, insulin dimers): 1.99 % formed/year
[3]; 37° C.
  hphil (hydrophilic derivatives, desamido-insulins): 11.2 % formed/year
  hphob1 (hydrophobic derivatives 1): 20.0 % formed/year
  hphob2 (hydrophobic derivatives 2, insulin dimers): 7.02 % formed/year
[3]; 45° C.
  hphil (hydrophilic derivatives, desamido-insulins): 29.9 % formed/year
  hphob1 (hydrophobic derivatives 1): 52.6 % formed/year
  hphob2 (hydrophobic derivatives 2, insulin dimers): 23.4 % formed/year

## O=C1NC(=O)C(=Cc2c[nH]c3ccc([N+](=O)[O-])cc23)S1 [Example 199, 5-(5-Nitro-1H-indol-3-ylmethylene)thiazolidine-2,4-dione]
other
  melting point: 330 to 333 °C

## CN(C)c1ccc(/C=C2\SC(=O)NC2=O)cc1 [TZD, 5-(4-dimethylaminobenzylidene)thiazolidine-2,4-dione, reference compound]
[1]; measured separately, read-out: KTZD
  Kd: 230 nM

## CCN(CC)c1ccc(/C=C2\SC(=O)NC2=O)cc1 [Example 70, 5-(4-Diethylaminobenzylidene)thiazolidine-2,4-dione]
[2]; 5° predicted
  dimer: (0.15) % formed/year
[2]; 15° C.
  dimer: 0.69 % formed/year
[2]; 25° C.
  dimer: 2.24 % formed/year
[2]; 30° C.
  dimer: 3.55 % formed/year
[2]; 37° C.
  dimer: 8.84 % formed/year
[2]; 45° C.
  dimer: 29.2 % formed/year
[3]; 5° predicted
  hphil (hydrophilic derivatives, desamido-insulins): (0.54) % formed/year
  hphob1 (hydrophobic derivatives 1): (0.22) % formed/year
  hphob2 (hydrophobic derivatives 2, insulin dimers): (0.064) % formed/year
[3]; 15° C.
  hphil (hydrophilic derivatives, desamido-insulins): 1.95 % formed/year
  hphob1 (hydrophobic derivatives 1): 1.09 % formed/year
  hphob2 (hydrophobic derivatives 2, insulin dimers): 0.42 % formed/year
[3]; 25° C.
  hphil (hydrophilic derivatives, desamido-insulins): 6.08 % formed/year
  hphob1 (hydrophobic derivatives 1): 4.99 % formed/year
  hphob2 (hydrophobic derivatives 2, insulin dimers): 0.94 % formed/year
[3]; 30° C.
  hphil (hydrophilic derivatives, desamido-insulins): 12.1 % formed/year
  hphob1 (hydrophobic derivatives 1): 6.94 % formed/year
  hphob2 (hydrophobic derivatives 2, insulin dimers): 3.03 % formed/year
[3]; 37° C.
  hphil (hydrophilic derivatives, desamido-insulins): 23.7 % formed/year
  hphob1 (hydrophobic derivatives 1): 14.8 % formed/year
  hphob2 (hydrophobic derivatives 2, insulin dimers): 6.50 % formed/year
[3]; 45° C.
  hphil (hydrophilic derivatives, desamido-insulins): 56.2 % formed/year
  hphob1 (hydrophobic derivatives 1): 78.8 % formed/year
  hphob2 (hydrophobic derivatives 2, insulin dimers): 27.0 % formed/year

## O=C1NC(=O)/C(=C/c2c(Cl)cccc2Cl)S1 [Example 229, 5-(2,6-Dichlorobenzylidene)thiazolidine-2,4-dione]
other
  melting point: 152 to 154 °C

## O=C1NC(=O)/C(=C/c2cc3ccccc3o2)S1 [Example 238, 5-Benzofuran-2-ylmethylenethiazolidine-2,4-dione]
other
  melting point: 265 to 266 °C

## CCCCCOc1ccccc1/C=C1\SC(=O)NC1=O [Example 76, 5-(2-Pentyloxybenzylidene)thiazolidine-2,4-dione]
[1]; [4]
  Kd: 82 nM

## O=C1NC(=O)/C(=C/C(Cl)=C/c2ccccc2)S1 [Example 241, 5-(2-Chloro-3-phenylallylidene)thiazolidine-2,4-dione]
other
  melting point: 251 to 254 °C

## COc1cc(/C=C2\SC(=O)NC2=O)cc(I)c1O [Example 167, 5-(4-Hydroxy-3-iodo-5-methoxybenzylidene)thiazolidine-2,4-dione]
other
  melting point: 256 °C

## c1cc(COc2ccc3ccccc3c2)cc(-c2nnn[nH]2)c1 [Example 572, 5-(3-(Naphthalen-2-yloxymethyl)-phenyl)-1H-tetrazole]
other
  melting point: 200 to 202 °C

## COc1cccc(OC)c1/C=C1\SC(=O)NC1=O [Example 236, 5-(2,6-Dimethoxybenzylidene)thiazolidine-2,4-dione]
other
  melting point: 241 to 242 °C

## O=C(O)COc1ccc(/C=C2\SC(=O)NC2=O)c2ccccc12 [Example 476, [4-(2,4-Dioxothiazolidin-5-ylidenemethyl)naphthalen-1-yloxy]acetic acid]
[1]; [4]
  Kd: 68 nM

## COc1cc(O)cc(OC)c1/C=C1\SC(=O)NC1=O [Example 234, 5-(4-Hydroxy-2,6-dimethoxybenzylidene)thiazolidine-2,4-dione]
other
  melting point: 331 to 333 °C

## O=C1NC(=O)/C(=C/c2cc3ccccc3[nH]c2=O)S1 [Example 242, 5-(2-Oxo-1,2-dihydroquinolin-3-ylmethylene)thiazolidine-2,4-dione]
other
  melting point: 338 to 347 °C

## c1ccc2[nH]nnc2c1 [Example 1]
[1]; [4]
  Kd: 3880 nM
